From patent US9809640B2, “ApoE peptide dimers and uses thereof” (priority 2010, dated 2017)
Like-named read-outs stand apart in the source and are kept apart here. Non-standard residues stand in square brackets, D forms with d. Residues, ends and D or L forms follow the SMILES beside them. No end group written: not given here. Aib = CC(C)(N)C(=O)O

Tests used:
[1] = Mouse toxicity, maximum tolerated dose by intravenous injection; settings: in vivo, maximum dose by intravenous injection without deaths after 24 hrs
Source text: (§1) We also evaluated the various peptides for efficacy in suppressing nitric oxide production induced by LPS stimulation of BV2 microglia cells as a measure of anti-inflammatory activity as well as the maximum dose tolerated in mice (Table I and FIG. 6A). For the LPS assay, EC50 is the concentration of compound that caused a 50% suppression of nitric oxide release from BV2 cells following LPS stimulation. For mouse toxicity, MTD is the maximum dose of the compound that can be given by intravenous injection without causing deaths after 24 hrs. […] Coupling the ApoE domain to a protein transduction domain further enhanced the potency of the dimers.

B-CLL cells = assay: Cytotoxicity on patient-derived B-CLL cells (MTS assay); settings: for Fold Change: CLL EC50 relative to COG056 (rev133) = 1.0
Source text: FIG. 5A: Dose response curves for COG449 cytotoxicity on CLL cells from 4 leukemia patients. Human CLL cells were isolated from blood samples and assayed for COG449 cytotoxicity. […] FIG. 5B: Dose response curves for COG445 on CLL cells from 7 patients or normal B-cells from 5 patients. Human CLL cells and PBMC were isolated and assayed for cytotoxicity of COG445.
Blood from CLL patients was collected and CD5+/CD19+ CLL cells were isolated using the RosetteSep™ Human B-Cell Enrichment Cocktail, according to the manufacturer's instructions, and treated with COG compounds. Compounds were applied to B-CLL cells (2.5×10^5 cells/well in a 96 well plate), after which the cells were treated for 72 hours.
Normal B-cells from volunteers and B-CLL cells from patients are isolated using the RosetteSep™ Human B Cell Enrichment Cocktail according to the manufacturer's instructions. This method depletes whole blood of T cells, monocytes, and NK cells using a proprietary antibody cocktail that cross-links unwanted cells in human whole blood to multiple red blood cells (RBCs) forming immunorosettes. This increases the density of the unwanted (rosetted) cells, such that they pellet along with the free RBCs when centrifuged over a buoyant density medium such as Ficoll-Paque®. This leaves the highly enriched B-cell or B-CLL cells at the interface between Ficoll and the plasma. The antibodies in the cocktail contain […] and anti-CD16 antibodies to remove T cells, monocytes, and NK cells, respectively. The purity of these B-cell and B-CLL preparations is then determined by flow cytometry.
For cytotoxicity assays, 3×10^6 CLL cells/well are cultured in 24 well tissue culture plates in 1.5 mL of Hybridoma SFM™ (Gibco, Long Island, N.Y.) as described by Levesque et al. (2001, 2003). All cultures are incubated at 37° C., 5% CO2 in air.

normal B-cells = assay: Cytotoxicity on normal B-cells from volunteers; assay type: cell-based, human; settings: normal B-cells from volunteers
Source text: Normal B-cells from volunteers and B-CLL cells from patients are isolated using the RosetteSep™ Human B Cell Enrichment Cocktail according to the manufacturer's instructions. This method depletes whole blood of T cells, monocytes, and NK cells using a proprietary antibody cocktail that cross-links unwanted cells in human whole blood to multiple red blood cells (RBCs) forming immunorosettes. This increases the density of the unwanted (rosetted) cells, such that they pellet along with the free RBCs when centrifuged over a buoyant density medium such as Ficoll-Paque®. This leaves the highly enriched B-cell or B-CLL cells at the interface between Ficoll and the plasma. The antibodies in the cocktail contain anti-CD14, anti-CD2 and anti-CD16 antibodies to remove T cells, monocytes, and NK cells, respectively. The purity of these B-cell and B-CLL preparations is then determined by flow cytometry. Preparations typically average less than 2% CD3+ T-cells and less than 0.5% CD14+ monocytes. In the case of B-CLL cell isolation, we routinely obtain preparations that contain less than 1.5% normal CD19+/CD5− B-cells using this method.

U87MG glioblastoma cells = assay type: cell-based; settings: MTT
Description: FIG. 14A: Dose response curve of COG445 on proliferation of U87 (open circles) and MDA-MB-231 (filled circles) cells as measured by MTT reduction. FIG. 14B: Dose response curve of COG445 on proliferation of MDA-MB-231 cells as measured by cell count.
To determine whether ApoE peptide dimers were cytotoxic to other types of cancer, we evaluated the effect of three different ApoE BMOE-linked peptide dimers (COG449, COG492, COG493; see Table I) on the growth characteristics of U87MG glioblastoma cells. Various concentrations of COG449, COG492, COG493 or Sorafenib were used to treat U87MG glioblastoma cells and viable cells were quanititated using MTT. Sorafenib, which has previously been reported to be cytotoxic to glioblastoma cells (Yang et al. (2010) Mol Cancer Ther., Vol. 9(4):953-962), was used as a positive control.
Because COG445 inhibited Akt activation and downstream signaling, we examined the effects of COG445 on cellular proliferation. Adherent MB231 and U87 cells were grown for ˜24 hours in the presence of COG445 and cellular proliferation was measured by MTT reduction. […] Furthermore, COG445 inhibited MB231 cellular proliferation as determined by cell count (FIG. 14B). Approximately 6×10^4 cells were plated in growth media (RPMI+10% FBS) for 24-hours with increasing concentrations of COG445. […] However at concentrations ≧1 μM COG445, there appears to be a loss of cells. This is partially explained by decreased proliferation, although it is possible that the rate of cellular degradation was increased in the presence of COG445.

BV2 microglia cells = assay: LPS-induced nitric oxide production in BV2 microglia cells; assay type: cell-based; settings: 50% suppression of nitric oxide release from BV2 cells following LPS stimulation
Description: FIG. 1. COG 112 inhibits LPS-induced production of inflammatory cytokines in BV2 microglia cells. Inhibition curves for COG112 in the production of NO (green squares), TNFα (red diamonds), and IL-6 (blue triangles) by BV2 microglia. Compounds were added to the final concentrations indicated on the graph along with 100 ng/mL of LPS. After 24 hours the media was removed and assayed by two-site ELISA (BioSource) and quantitated relative to a standard curve on the same plate.
FIG. 3. NO Inhibition curve for COG449. BV2 microglia were treated with COG449 at the final concentrations indicated on the graph, along with 100 ng/mL of LPS. After 24 hours the media was removed and assayed by two-site ELISA (BioSource) and quantitated relative to a standard curve on the same plate.
as §1
Low passage BV2 microglial cell cultures are maintained in 10% HI (Heat Inactivated) FBS DMEM media (supplemented with MEM NEAA (Non-Essential Amino Acids), sodium pyruvate and Pen-Strep) and continuously cultured until needed. To determine the IC50 values for NO production, peptides are added to BV2 cultures in 1% HI FBS DMEM media (supplemented with MEM NEAA and sodium pyruvate) at a range of final assay concentrations from 1.0 μM in 2 fold dilutions to 7.8 nM followed immediately by addition of LPS (100 ng/mL final concentration) as previously described (Laskowitz et al. (2001) Exp Neurol, Vol. 167(1): 74-85). After incubating for 18±1 hours, conditioned media is removed for analysis of nitrite (the stable oxidation product of released nitric oxide) by the Griess colorimetric assay (Promega). Remaining cells are assayed for viability in an MTT assay (Promega) and the nitrite assay values are normalized for each concentration using the percent viability of cells in the MTT assay. […] Typically, the absence of LPS exposure to BV2 cells results in levels below the limit of detection in our assays. Similarly, addition of any of the peptides up to 25 μM without LPS results in undetectable NO levels.

[2] = read-out: CLL EC50, B-CLL cells from patients, 72 hours, MTS assay

| Molecule | MTD at 24 h [1] [mg/kg] | EC50 (B-CLL cells; read-out: ED50 cytotoxic potency (text, Table I), CLL cells) [µM] | EC50 (normal B-cells) [µM] | cytotoxicity to U87MG cells (U87MG glioblastoma cells) | EC50 (BV2 microglia cells) [µM] | Fold Change (B-CLL cells) | EC50 (B-CLL cells; [2]) [µM] |
| --- | --- | --- | --- | --- | --- | --- | --- |
| CC(=O)N[C@@H](CC(C)C)C(=O)N[C@@H](CCCNC(=N)N)C(=O)N[C@H](C(=O)N[C@@H](CCCNC(=N)N)C(=O)N[C@@H](CC(C)C)C(=O)N[C@@H](C)C(=O)N[C@@H](CO)C(=O)N[C@@H](Cc1c[nH]cn1)C(=O)N[C@@H](CC(C)C)C(=O)N[C@@H](CCCNC(=N)N)C(=O)N[C@@H](CCCCN)C(=O)N[C@@H](CC(C)C)C(=O)N[C@@H](CCCNC(=N)N)C(=O)N[C@@H](CCCCN)C(=O)N[C@@H](CCCNC(=N)N)C(=O)N[C@@H](CC(C)C)C(=O)N[C@@H](CC(C)C)C(N)=O)C(C)C [COG133, LRVRLASHLRKLRKRLL (SEQ ID NO: 3)] | 16 | 4.4 ± 1.5 | > 20 |  |  |  |  |
| CC(=O)N[C@@H](CSC1CC(=O)N(CCN2C(=O)CC(SC[C@H](NC(C)=O)C(=O)N[C@@H](CC(C)C)C(=O)N[C@@H](CCCNC(=N)N)C(=O)N[C@H](C(=O)N[C@@H](CCCNC(=N)N)C(=O)N[C@@H](CC(C)C)C(=O)N[C@@H](C)C(=O)N[C@@H](CO)C(=O)N[C@@H](Cc3c[nH]cn3)C(=O)N[C@@H](CC(C)C)C(=O)N[C@@H](CCCNC(=N)N)C(=O)N[C@@H](CCCCN)C(=O)N[C@@H](CC(C)C)C(=O)N[C@@H](CCCNC(=N)N)C(=O)N[C@@H](CCCCN)C(=O)N[C@@H](CCCNC(=N)N)C(=O)N[C@@H](CC(C)C)C(=O)N[C@@H](CC(C)C)C(N)=O)C(C)C)C2=O)C1=O)C(=O)N[C@@H](CC(C)C)C(=O)N[C@@H](CCCNC(=N)N)C(=O)N[C@H](C(=O)N[C@@H](CCCNC(=N)N)C(=O)N[C@@H](CC(C)C)C(=O)N[C@@H](C)C(=O)N[C@@H](CO)C(=O)N[C@@H](Cc1c[nH]cn1)C(=O)N[C@@H](CC(C)C)C(=O)N[C@@H](CCCNC(=N)N)C(=O)N[C@@H](CCCCN)C(=O)N[C@@H](CC(C)C)C(=O)N[C@@H](CCCNC(=N)N)C(=O)N[C@@H](CCCCN)C(=O)N[C@@H](CCCNC(=N)N)C(=O)N[C@@H](CC(C)C)C(=O)N[C@@H](CC(C)C)C(N)=O)C(C)C (some centres unmarked) [COG492, C-LRVRLASHLRKLRKRLL (SEQ ID NO: 15) <BMOE> C-LRVRLASHLRKLRKRLL (SEQ ID NO: 15)] | 25 |  |  | cytotoxic |  |  |  |
| LLRKRLKRLHSALRVRL [COG056, LLRKRLKRLHSALRVRL (SEQ ID NO: 2), reference compound] |  |  |  |  | > 20 | 1.0 | 12.9 |
| CC[C@H](C)[C@H](NC(=O)[C@H](CCCCN)NC(=O)[C@@H](NC(=O)[C@H](CCC(N)=O)NC(=O)[C@@H](N)CCCNC(=N)N)[C@@H](C)CC)C(=O)N[C@@H](Cc1c[nH]c2ccccc12)C(=O)N[C@@H](Cc1ccccc1)C(=O)N[C@@H](CCC(N)=O)C(=O)N[C@@H](CC(N)=O)C(=O)N[C@@H](CCCNC(=N)N)C(=O)N[C@@H](CCCNC(=N)N)C(=O)N[C@@H](CCSC)C(=O)N[C@@H](CCCCN)C(=O)N[C@@H](Cc1c[nH]c2ccccc12)C(=O)N[C@@H](CCCCN)C(=O)N[C@@H](CCCCN)C(=O)N[C@@H](CS)C(=O)N[C@@H](C)C(=O)N[C@@H](CO)C(=O)NC(C)(C)C(=O)N[C@@H](CC(C)C)C(=O)N[C@@H](CCCNC(=N)N)C(=O)N[C@@H](CCCCN)C(=O)N[C@@H](CC(C)C)C(=O)NC(C)(C)C(=O)N[C@@H](CCCCN)C(=O)N[C@@H](CCCNC(=N)N)C(=O)N[C@@H](CC(C)C)C(=O)N[C@@H](CC(C)C)C(=O)O [COG120, RQIKIWFQNRRMKWKK-C-AS(Aib)LRKL(Aib)KRLL (SEQ ID NO: 7)] (H-RQIKIWFQNRRMKWKKCAS[Aib]LRKL[Aib]KRLL-OH; N-terminus and C-terminus assumed) |  |  |  |  | < 1 | 12.6 | 1 |
| CC(C)C[C@H](NC(=O)[C@H](CC(C)C)NC(=O)[C@H](CCCNC(=N)N)NC(=O)[C@H](CCCCN)NC(=O)C(C)(C)NC(=O)[C@H](CC(C)C)NC(=O)[C@H](CCCCN)NC(=O)[C@H](CCCNC(=N)N)NC(=O)[C@H](CC(C)C)NC(=O)C(C)(C)NC(=O)[C@H](CO)NC(=O)[C@H](C)NC(=O)[C@H](CS)NC(=O)[C@H](CCCNC(=N)N)NC(=O)[C@H](CCCNC(=N)N)NC(=O)[C@H](CCCNC(=N)N)NC(=O)[C@H](CCC(N)=O)NC(=O)[C@H](CCCNC(=N)N)NC(=O)[C@H](CCCNC(=N)N)NC(=O)[C@H](CCCCN)NC(=O)[C@H](CCCCN)NC(=O)[C@H](CCCNC(=N)N)NC(=O)CNC(=O)[C@@H](N)Cc1ccc(O)cc1)C(=O)O [COG226, YGRKKRRQRRR-C-AS(Aib)LRKL(Aib)KRLL (SEQ ID NO: 6)] (H-YGRKKRRQRRRCAS[Aib]LRKL[Aib]KRLL-OH) |  |  |  |  | < 1 | 9.2 | 1.4 |
